Laboratory results as given in patent US9999222B2, “Herbicidal combination comprising azines” (BASF SE, priority 2014, dated 2018).

Legend:
GALAP = assay: Greenhouse test, pre-emergence treatment; assay type: in vivo, Galium aparine; conditions: Galium aparine, pre-emergence, 480 h
Method in brief: (§1)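 Seeds were sown in loamy sand with about 3.0% humus, and compounds in water were sprayed immediately after sowing, alone or as combinations formulated as 10% emulsion concentrates. Plants grew under hoods until rooted, at 10-25 °C or 20-35 °C by species, for 2 to 4 weeks. Damage was scored 0-100 (100 = no emergence or complete destruction), and Colby expected values were E=X+Y−(X·Y/100).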

ANTAR = assay: Greenhouse test, pre-emergence treatment; assay type: in vivo; conditions: Anthemis arvensis, 480 h, 40 g ai/ha, 20 DAT, read-out: observed % activity
Method in brief: as §1

KCHSC = assay: Greenhouse test, pre-emergence treatment; assay type: in vivo, Kochia scoparia; conditions: Bassia scoparia, pre-emergence, 480 h, pre-emergence, 60 g ai/ha; read-out: observed % activity 20 DAT
Method in brief: as §1

GERPU = assay: Greenhouse test, pre-emergence treatment; assay type: in vivo, Geranium pusillum; conditions: Geranium pusillum, pre-emergence, 480 h
Method in brief: as §1

EPHHL = assay: Greenhouse test, pre-emergence treatment; assay type: in vivo, Euphorbia heterophylla; conditions: Euphorbia heterophylla, pre-emergence, 480 h
Method in brief: as §1

SIDRH = assay: Greenhouse test, pre-emergence treatment; assay type: in vivo, Sida rhombifolia; conditions: Sida rhombifolia, pre-emergence, 480 h, 40 g ai/ha, 20 DAT; read-out: observed % activity
Method in brief: as §1

CENCY = assay: Greenhouse test, pre-emergence treatment; assay type: in vivo; conditions: 480 h, read-out: observed % activity 20 DAT
IPOHE = assay: Greenhouse test, pre-emergence treatment; assay type: in vivo, Ipomoea hederacea; conditions: Ipomoea hederacea, 480 h, 60 g ai/ha, read-out: observed % activity 20 DAT
Method in brief: as §1

ABUTH = assay: Greenhouse test, pre-emergence treatment; assay type: in vivo, Abutilon theophrasti
Method in brief: as §1

COMBE = assay: Greenhouse test, pre-emergence treatment; assay type: in vivo, Commelina benghalensis; conditions: Commelina benghalensis, pre-emergence, 480 h
Method in brief: as §1

POLCO [1] = assay: Greenhouse test, pre-emergence treatment; assay type: in vivo, Polygonum convolvulus; conditions: Fallopia convolvulus, pre-emergence, 480 h
Method in brief: as §1

AMARE [2] = assay: Greenhouse test, pre-emergence treatment; assay type: in vivo, Amaranthus retroflexus; conditions: application rate 0.25 kg/ha, scale 0 to 100
Text: (§2) The culture containers used were plastic flowerpots containing loamy sand with approximately 3.0% of humus as the substrate. The seeds of the test plants were sown separately for each species.
(§3) For the pre-emergence treatment, the active ingredients, which had been suspended or emulsified in water, were applied directly after sowing by means of finely distributing nozzles. The containers were irrigated gently to promote germination and growth and subsequently covered with transparent plastic hoods until the plants had rooted. This cover caused uniform germination of the test plants, unless this had been impaired by the active ingredients.
(§4) Depending on the species, the plants were kept at 10-25° C. or 20-35° C., respectively.
(§5) The test period extended over 2 to 4 weeks. During this time, the plants were tended, and their response to the individual treatments was evaluated.
Evaluation was carried out using a scale from 0 to 100. […]
In the examples below, using the method of S. R. Colby (1967) “Calculating synergistic and antagonistic responses of herbicide combinations”, Weeds 15, p. 22ff., the value E, which is expected if the activity of the individual active compounds is only additive, was calculated. […]
(§6) If the value found experimentally is higher than the value E calculated according to Colby, a synergistic effect is present.

SETFA = assay: Greenhouse test, pre-emergence treatment; assay type: in vivo, Setaria faberi; conditions: SETFA, application rate 0.25 kg/ha, scale 0 to 100
Text: as §2, §3, §4, §5
(§7) Evaluation was carried out using a scale from 0 to 100. 100 means no emergence of the plants, or complete destruction of at least the aerial moieties, and 0 means no damage, or normal course of growth. A moderate herbicidal activity is given at values of at least 60, a good herbicidal activity is given at values of at least 70, and a very good herbicidal activity is given at values of at least 85.
The respective stated components a and b, and if appropriate, c were formulated as a 10% by weight strength emulsion concentrate and, with addition of the amount of solvent system, introduced into the spray liquor used for applying the active compound.
In the examples, the solvent used was water.
In the examples below, using the method of S. R. Colby (1967) “Calculating synergistic and antagonistic responses of herbicide combinations”, Weeds 15, p. 22ff., the value E, which is expected if the activity of the individual active compounds is only additive, was calculated. E=X+Y−(X·Y/100) where • X=percent activity using active compound a at an application rate A; • Y=percent activity using active compound b at an application rate B; • E=expected activity (in %) by a+b at application rates A+B.
as §6

POLCO [3] = assay: Greenhouse test, post-emergence treatment; assay type: in vivo, Polygonum convolvulus; conditions: application rate 1.0 kg/ha, scale 0 to 100
Text: as §2
(§8) For the post-emergence treatment, the test plants were first grown to a height of […], depending on the plant habit, and only then treated with the active ingredients which had been suspended or emulsified in water. For this purpose, the test plants were either sown directly and grown in the same containers, or they were first grown separately as seedlings and transplanted into the test containers a few days prior to treatment.
as §4, §5, §7

AMARE [4] = assay: Greenhouse test, post-emergence treatment; assay type: in vivo, Amaranthus retroflexus; conditions: application rate 1.0 kg/ha, scale 0 to 100
Text: as §2, §8, §4, §5, §7

[5] = 80 g ai/ha, 20 DAT, read-out: observed % activity
[6] = 60 g ai/ha, read-out: observed % activity 20 DAT
[7] = 40 g ai/ha, 20 DAT, read-out: observed % activity

For `O=C(Nc1ccc(F)cc1F)c1cccnc1Oc1cccc(C(F)(F)F)c1` [diflufenican], the inhibition at 80 g/ha (GALAP; [5]) was 40%, the inhibition at 30 g/ha (GALAP; 30 g ai/ha, read-out: observed % activity 20 DAT) was 20% and the inhibition at 60 g/ha (GALAP; [6]) was 25%. The inhibition at 40 g/ha (ANTAR) was 85%, the inhibition at 60 g/ha (KCHSC) was 80% and the inhibition at 40 g/ha (GERPU; [7]) was 40%. The inhibition at 80 g/ha (GERPU; [5]) was 50%, the inhibition at 60 g/ha (GERPU; [6]) was 60% and the inhibition at 40 g/ha (EPHHL; [7]) was 20%. The inhibition at 60 g/ha (EPHHL; [6]) was 15%, the inhibition at 40 g/ha (SIDRH) was 0% and the inhibition at 30 g/ha (CENCY; 30 g ai/ha) was 0%. The inhibition at 60 g/ha (CENCY; 60 g ai/ha) was 0%, the inhibition at 60 g/ha (IPOHE) was 15% and the inhibition at 30 g/ha (ABUTH; Abutilon theophrasti, 480 h, 30 g ai/ha, read-out: observed % activity 20 DAT) was 0%. It also gave an inhibition at 40 g/ha (ABUTH; Abutilon theophrasti, 480 h, 40 g ai/ha, 20 DAT, read-out: observed % activity) of 25%, an inhibition at 60 g/ha (ABUTH; Abutilon theophrasti, 480 h, 60 g ai/ha, read-out: observed % activity 20 DAT) of 0% and an inhibition at 80 g/ha (ABUTH; Abutilon theophrasti, 480 h, 80 g ai/ha, 20 DAT, read-out: observed % activity) of 50%. It also gave an inhibition at 80 g/ha (COMBE; [5]) of 55%, an inhibition at 60 g/ha (COMBE; [6]) of 35% and an inhibition at 40 g/ha (POLCO [1]; [7]) of 20%. For the same molecule, the inhibition at 60 g/ha (POLCO [1]; [6]) was 60%.

In the case of `CCCC(C)c1nc(N)nc(Nc2c(F)c(F)cc(F)c2F)n1` (stereo not drawn) [Example 6, 6-(1-methylbutyl)-N4-(2,3,5,6-tetrafluorophenyl)-1,3,5-triazine-2,4-diamine], the herbicidal activity (AMARE [2]) is reported as “very good herbicidal activity (a very good herbicidal activity is given at values of at least 85)”, the herbicidal activity (SETFA) is reported as “very good herbicidal activity (a very good herbicidal activity is given at values of at least 85)” and the herbicidal activity (ABUTH; ABUTH, application rate 0.25 kg/ha, scale 0 to 100) is reported as “very good herbicidal activity (a very good herbicidal activity is given at values of at least 85)”.

With `Nc1nc(CC2CC2)nc(Nc2c(F)cc(F)cc2F)n1` [Example 4, 6-(cyclopropylmethyl)-N4-(2,4,6-trifluorophenyl)-1,3,5-triazine-2,4-diamine] the herbicidal activity (POLCO [3]) was “good herbicidal activity (a good herbicidal activity is given at values of at least 70)” and the herbicidal activity (AMARE [4]) was “very good herbicidal activity (a very good herbicidal activity is given at values of at least 85)”.
